Structures are written as SMILES. Several values for one entry are separate records, joined by “and”; a condition that tells them apart may be missing. Identical values can stand only once. Inconclusive results and toxic doses are left out.

This assay has as its system P388 leukemia ip, CD2F1 mice, survival T/C. In words: NCI In Vivo Anticancer Drug Screen. Data for tumor model P388 Leukemia (intraperitoneal) in CD2F1 (CDF1) mice. Particulars: endpoint: median survival time, higher = longer survival. The gist of the method: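 Mice carrying the transplanted tumor received test compound or vehicle. Survival was recorded in each group, and the value is the treated-group measurement divided by that of the vehicle-treated control group.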

[1] abbreviates: dose: 50.0 mg/kg/injection, schedule: Q01DX005 (ip), vehicle: saline with Tween-80.
Setting [2] is: dose: 25.0 mg/kg/injection, schedule: Q01DX009 (ip), vehicle: saline with Tween-80.
The mark [3] stands for this setting: dose: 50.0 mg/kg/injection, schedule: Q01DX009 (ip), vehicle: saline with Tween-80.
[4] abbreviates: dose: 100.0 mg/kg/injection, schedule: Q01DX009 (ip), vehicle: saline with Tween-80.

For the compound `CCCCCCCCCCCCCCCCCC(=O)NC(CC(=O)OCCCCCC)c1ccc(N(CCCl)CCCl)cc1` (stereo unspecified), the T/C reads like this: (dose: 4.3 mg/kg/injection, schedule: Q01DX009 (ip), vehicle: saline) 163 % of control; (dose: 8.6 mg/kg/injection, schedule: Q01DX009 (ip), vehicle: saline) 186 % of control; (dose: 8.6 mg/kg/injection, schedule: Q03HX008 (ip), vehicle: saline) 150 % of control; (dose: 17.2 mg/kg/injection, schedule: Q01DX009 (ip), vehicle: saline) 213 % of control; (dose: 17.2 mg/kg/injection, schedule: Q03HX008 (ip), vehicle: saline) 165 % of control; (dose: 34.4 mg/kg/injection, schedule: Q03HX008 (ip), vehicle: saline) 200 % of control. For the same compound, the T/C by setting is: (dose: 34.5 mg/kg/injection, schedule: Q03HX008 (ip), vehicle: saline) 250 % of control; (dose: 68.8 mg/kg/injection, schedule: Q03HX008 (ip), vehicle: saline) 315 % of control; (dose: 138.0 mg/kg/injection, schedule: Q03HX008 (ip), vehicle: saline) 168 % of control; (dose: 275.0 mg/kg/injection, schedule: Q03HX008 (ip), vehicle: saline) 163 % of control.

For `O=C(O)C1CSC2(CCCN(Cc3ccccc3)C2)N1` (stereo unspecified), the T/C by setting is: (dose: 50.0 mg/kg/injection, schedule: Q01DX009 (ip), vehicle: saline) 96 % of control; (dose: 100.0 mg/kg/injection, schedule: Q01DX009 (ip), vehicle: saline) 106 % of control; (dose: 200.0 mg/kg/injection, schedule: Q01DX009 (ip), vehicle: saline) 113 % of control.

On to `FC(F)(F)c1ccc2nc(Cl)[nH]c2c1`, for which the T/C under setting [1] is 98 % of control and the T/C (dose: 100.0 mg/kg/injection, schedule: Q01DX005 (ip), vehicle: saline with Tween-80) was 98 % of control.

As to `CCCCCCCCCCCCCCCC(=O)N(C/C=C/CN(CCCN(C)C)C(=O)CCCCCCCCCCCCCCC)CCCN(C)C`, the T/C by setting is: (dose: 6.25 mg/kg/injection, schedule: Q01DX009 (ip), vehicle: saline with Tween-80) 100 % of control; (dose: 12.5 mg/kg/injection, schedule: Q01DX009 (ip), vehicle: saline with Tween-80) 90 % of control; under setting [2], 90 % of control.

With `C/C(=N\NC(=S)N1CCC(c2ccccc2)CC1)c1ncccn1`, the T/C is, setting by setting: (dose: 12.5 mg/kg/injection, schedule: Q01DX005 (ip), vehicle: saline with Tween-80) 110 % of control; under setting [1], 169 % of control.

`NC(CO)C(O)c1ccc(N=Nc2ccc(O)cc2)cc1` (stereo unspecified): the T/C is, setting by setting: under setting [2], 95 % of control; under setting [3], 100 % of control; under setting [4], 95 % of control.

Turning to `CCOC(=O)C(C)(/C=N/NS(=O)(=O)c1ccc(C)cc1)c1ccccc1` (stereo unspecified), the T/C (dose: 50.0 mg/kg/injection, schedule: Q01DX009 (ip), vehicle: Klucel (hydroxypropylcellulose) (HPC)) was 106 % of control; the T/C (dose: 100.0 mg/kg/injection, schedule: Q01DX009 (ip), vehicle: Klucel (hydroxypropylcellulose) (HPC)) is 98 % of control; the T/C (dose: 200.0 mg/kg/injection, schedule: Q01DX009 (ip), vehicle: Klucel (hydroxypropylcellulose) (HPC)) was 100 % of control.

For the compound `COc1ccc2c(c1)[C@@]13CCCC[C@H]1[C@@H](C2)N(C)CC3(C)O` (stereo partly specified), the T/C is 97 % of control (dose: 100.0 mg/kg/injection, schedule: Q04DX002 (ip), vehicle: Klucel (hydroxypropylcellulose) (HPC)) and 105 % of control (dose: 200.0 mg/kg/injection, schedule: Q04DX002 (ip), vehicle: Klucel (hydroxypropylcellulose) (HPC)).

As for `Nc1c(Br)cc(Br)c2[nH]c(=O)c3ccccc3c12`, the T/C reads like this: (dose: 60.0 mg/kg/injection, schedule: Q01DX005 (ip), vehicle: saline with Tween-80) 116 % of control; (dose: 120.0 mg/kg/injection, schedule: Q01DX005 (ip), vehicle: saline with Tween-80) 106 % of control.

Turning to `O=c1c(Cl)c2oc3ccc([N+](=O)[O-])cc3nc-2c(Cl)c1Cl`, the T/C under setting [3] was 109 % of control and the T/C under setting [4] is 107 % of control.

As for `Clc1ccc(-c2ncnc3c2Cc2ccccc2-3)cc1`, the T/C reads like this: (dose: 100.0 mg/kg/injection, schedule: Q04DX003 (ip), vehicle: saline with Tween-80) 104 % of control; (dose: 200.0 mg/kg/injection, schedule: Q04DX003 (ip), vehicle: saline with Tween-80) 100 % of control; (dose: 400.0 mg/kg/injection, schedule: Q04DX003 (ip), vehicle: saline with Tween-80) 104 % of control.

As for `C=C1C2CC[C@@H]3C45C=NC[C@@](C)(CCC4)[C@@H]5CCC3(C2)[C@@H]1OC(C)=O`, the T/C by setting is: (dose: 4.0 mg/kg/injection, schedule: Q01DX009 (ip), vehicle: Klucel (hydroxypropylcellulose) (HPC)) 94 % of control; (dose: 8.0 mg/kg/injection, schedule: Q01DX009 (ip), vehicle: Klucel (hydroxypropylcellulose) (HPC)) 94 % of control; (dose: 16.0 mg/kg/injection, schedule: Q01DX009 (ip), vehicle: Klucel (hydroxypropylcellulose) (HPC)) 95 % of control; (dose: 32.0 mg/kg/injection, schedule: Q01DX009 (ip), vehicle: Klucel (hydroxypropylcellulose) (HPC)) 96 % of control.

Consider `OCc1cccc2c1Oc1ccccc1S2`, for which the T/C (dose: 100.0 mg/kg/injection, schedule: Q01DX001 (ip), vehicle: saline with Tween-80) is 98 % of control; the T/C (dose: 200.0 mg/kg/injection, schedule: Q01DX001 (ip), vehicle: saline with Tween-80) is 98 % of control; the T/C (dose: 400.0 mg/kg/injection, schedule: Q01DX001 (ip), vehicle: saline with Tween-80) is 95 % of control.

As to `COc1cc2c(cc1OC)C(OC)N(C)c1c-2ccc2cc3c(cc12)OCO3` (stereo unspecified), the T/C was 122 % of control (dose: 2.0 mg/kg/injection, schedule: Q01DX009 (ip), vehicle: water); 109 % of control (dose: 2.0 mg/kg/injection, schedule: Q03HX008 (ip), vehicle: water); 104 % of control (dose: 4.0 mg/kg/injection, schedule: Q01DX009 (oral), vehicle: water); 104 % of control (dose: 4.0 mg/kg/injection, schedule: Q01DX009 (sc), vehicle: water); 122 % of control (dose: 4.0 mg/kg/injection, schedule: Q03HX008 (ip), vehicle: water); 100 % of control (dose: 8.0 mg/kg/injection, schedule: Q01DX009 (oral), vehicle: water). Also, the T/C is 100 % of control (dose: 8.0 mg/kg/injection, schedule: Q01DX009 (sc), vehicle: water); 119 % of control (dose: 8.0 mg/kg/injection, schedule: Q04DX003 (ip), vehicle: water); 107 % of control (dose: 16.0 mg/kg/injection, schedule: Q01DX001 (ip), vehicle: water); 101 % of control (dose: 16.0 mg/kg/injection, schedule: Q01DX009 (oral), vehicle: water); 97 % of control (dose: 16.0 mg/kg/injection, schedule: Q01DX009 (sc), vehicle: water); 122 % of control (dose: 16.0 mg/kg/injection, schedule: Q04DX003 (ip), vehicle: water). Further, the T/C is 109 % of control (dose: 16.0 mg/kg/injection, schedule: Q08DX002 (ip), vehicle: water); 158 % of control (dose: 25.0 mg/kg/injection, schedule: Q01DX009 (ip), vehicle: other); 104 % of control (dose: 32.0 mg/kg/injection, schedule: Q01DX001 (ip), vehicle: water); 90 % of control (dose: 32.0 mg/kg/injection, schedule: Q01DX009 (ip), vehicle: saline); 101 % of control (dose: 32.0 mg/kg/injection, schedule: Q01DX009 (oral), vehicle: water); 88 % of control (dose: 32.0 mg/kg/injection, schedule: Q01DX009 (sc), vehicle: water). For the same compound, the T/C (dose: 32.0 mg/kg/injection, schedule: Q04DX003 (ip), vehicle: water) is 124 % of control; the T/C (dose: 32.0 mg/kg/injection, schedule: Q08DX002 (ip), vehicle: water) was 119 % of control; the T/C (dose: 37.5 mg/kg/injection, schedule: Q01DX009 (ip), vehicle: saline with Tween-80) is 118 % of control; the T/C (dose: 44.0 mg/kg/injection, schedule: Q04DX003 (ip), vehicle: saline with Tween-80) is 154 % of control; the T/C (dose: 64.0 mg/kg/injection, schedule: Q01DX001 (ip), vehicle: water) was 106 % of control; the T/C (dose: 64.0 mg/kg/injection, schedule: Q01DX009 (oral), vehicle: water) is 109 % of control. The T/C is, setting by setting: (dose: 64.0 mg/kg/injection, schedule: Q04DX003 (ip), vehicle: water) 106 % of control; (dose: 64.0 mg/kg/injection, schedule: Q08DX002 (ip), vehicle: water) 109 % of control; (dose: 66.0 mg/kg/injection, schedule: Q04DX003 (ip), vehicle: saline with Tween-80) 154 % of control and 181 % of control; (dose: 75.0 mg/kg/injection, schedule: Q01DX009 (ip), vehicle: saline with Tween-80) 86 % of control; (dose: 150.0 mg/kg/injection, schedule: Q04DX003 (ip), vehicle: saline with Tween-80) 90 % of control.
